Each block holds one compound with its values, some of them ahead of it.
Tests used:
BACE1 [1] = molecular target: T1, BACE1 (Homo sapiens, UniProt P56817); assay: In Vitro Enzymatic BACE FRET (Fluorescence Resonance Energy Transfer) Assay; format: biochemical; details: read-out: BACE1 FRET assay
Procedure, shortened: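 First, compound and enzyme sit in 0.05 M acetate (pH 4.2, 10% DMSO final, 100 uM nonionic genapol). Next, 50 nM quenched FRET peptide starts the reaction for one hour. Last, Tris neutralises the mixture before fluorescence is measured.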

BACE1 [2] = molecular target: T1, BACE1; assay: In Vitro BACE Cell-based Assay (HEK cell assay): Aβ40 in conditioned medium of cells stably expressing Amyloid Precursor Protein, sandwich ELISA; details: read-out: HEK cell assay
Procedure, shortened: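 APP-expressing cells were cultured 24 h in DMEM/10% FBS, then treated 24 h with compounds in 10-point dose response (top 100 μM or 10 μM; 0.1% DMSO final). Secreted Aβ40 was quantified by sandwich ELISA (pAb40 capture, biotinylated 6E10 detection, Europium TRF); IC50 from percent inhibition versus concentration.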

[3] = Table II, Aβ40, 24 h incubation
[4] = in vitro BACE FRET enzyme assay, IC50 class symbols
[5] = HEK cell-based assay, Aβ40 in conditioned medium, IC50 class symbols

T1 sequence (P56817 46-501, species assumed): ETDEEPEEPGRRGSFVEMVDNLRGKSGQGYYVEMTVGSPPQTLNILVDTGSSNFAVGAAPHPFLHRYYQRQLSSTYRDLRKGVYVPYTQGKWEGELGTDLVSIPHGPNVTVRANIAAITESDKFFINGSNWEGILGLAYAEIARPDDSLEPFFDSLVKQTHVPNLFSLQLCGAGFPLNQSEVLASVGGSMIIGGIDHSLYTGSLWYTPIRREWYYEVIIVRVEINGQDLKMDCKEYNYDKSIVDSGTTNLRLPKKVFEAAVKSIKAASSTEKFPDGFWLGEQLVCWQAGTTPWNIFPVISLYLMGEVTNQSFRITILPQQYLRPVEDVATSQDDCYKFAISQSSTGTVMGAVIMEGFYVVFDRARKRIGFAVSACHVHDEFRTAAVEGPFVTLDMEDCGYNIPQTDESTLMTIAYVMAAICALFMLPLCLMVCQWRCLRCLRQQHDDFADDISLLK

Structure (SMILES): COc1ccc(-c2ccc3c(c2)[C@@]2(COC(N)=N2)c2cc(OCC(C)(C)C)ccc2O3)cn1 [Example 87, (4S)-2′-(2,2-dimethylpropoxy)-7′-(6-methoxy-3-pyridinyl)spiro[1,3-oxazole-4,9′-xanthen]-2-amine]
IC50 (BACE1 [1]; Table II): 0.1 to 1 µM
IC50 (BACE1 [2]; [3]): 1 to 5 µM

Structure (SMILES): NC1=N[C@]2(CO1)c1cc(-c3cncnc3)ccc1Oc1c(F)cccc12 [compound 552]
IC50 (BACE1 [1]; Table IV, class symbols): > 5 µM
IC50 (BACE1 [2]; Table IV, class symbols): > 5 µM

Structure (SMILES): N#Cc1ccc(-c2cc3c(cn2)Oc2ccc(-c4cccnc4F)cc2[C@@]32COC(N)=N2)cc1 [compound 372]
IC50 (BACE1 [1]; [4]): < 0.1 µM
IC50 (BACE1 [2]; [5]): < 0.1 µM

Structure (SMILES): COc1ccc2c(c1)[C@]1(COC(N)=N1)c1cc(-c3cncnc3)cnc1O2 [Example 54, (5R)-7-methoxy-3-(5-pyrimidinyl)spiro[chromeno[2,3-b]pyridine-5,4′-[1,3]oxazol]-2′-amine]
IC50 (BACE1 [1]; Table II): 1 to 5 µM
IC50 (BACE1 [2]; [3]): > 5 µM

Structure (SMILES): CC(C)(C)COc1ccc2c(c1)[C@@]1(COC(N)=N1)c1cc(-c3cncnc3)cc(F)c1O2 [155a]
IC50 (BACE1 [1]; Table III, IC50's in uM ranges): < 0.1 µM
IC50 (BACE1 [2]; Table III, IC50's in uM ranges): 0.1 to 1 µM

Structure (SMILES): NC1=N[C@]2(CO1)c1cc(OCC(C(F)(F)F)C(F)(F)F)ccc1Oc1ccc(-c3cncnc3)cc12 [compound 163]
IC50 (BACE1 [1]; Table III, IC50's in uM ranges): 0.1 to 1 µM
IC50 (BACE1 [2]; Table III, IC50's in uM ranges): 0.1 to 1 µM

Structure (SMILES): CC1(COc2cnc3c(c2)[C@]2(COC(N)=N2)c2cc(-c4ccccc4Cl)ccc2O3)COC1 [compound 414]
IC50 (BACE1 [1]; [4]): < 0.1 µM
IC50 (BACE1 [2]; [5]): 0.1 to 1 µM

Structure (SMILES): CCOCC(=O)Nc1ccc2c(c1)[C@@]1(COC(N)=N1)c1cc(OC)ccc1O2 [compound 376]
IC50 (BACE1 [1]; [4]): 0.1 to 1 µM
IC50 (BACE1 [2]; [5]): 0.1 to 1 µM

Structure (SMILES): NC1=N[C@]2(CO1)c1cc(C3=CCOCC3)ccc1Oc1cnc(-c3cccnc3F)cc12 [compound 497]
IC50 (BACE1 [1]): < 0.1 µM
IC50 (BACE1 [2]; HEK cells): < 0.1 µM

Structure (SMILES): CC1(C)CC(c2cc3c(cc2F)Oc2ccc(-c4cncnc4)cc2[C@@]32COC(N)=N2)=CC(=O)O1 [compound 524]
IC50 (BACE1 [1]): < 0.1 µM
IC50 (BACE1 [2]; HEK cells): < 0.1 µM

Structure (SMILES): NC1=N[C@@]2(CO1)c1cc(-c3cncnc3)ccc1Oc1c(F)cccc12 [compound 553]
IC50 (BACE1 [1]; Table IV, class symbols): < 0.1 µM
IC50 (BACE1 [2]; Table IV, class symbols): 0.1 to 1 µM

Structure (SMILES): CCOC(C)(C)COc1ccc2c(c1)[C@]1(COC(N)=N1)c1cc(-c3cncnc3)ccc1O2 [compound 170]
IC50 (BACE1 [1]; Table III, IC50's in uM ranges): < 0.1 µM
IC50 (BACE1 [2]; Table III, IC50's in uM ranges): < 0.1 µM

Structure (SMILES): CC(C)C[C@@H]1CN(c2ccc3c(c2)[C@]2(COC(N)=N2)c2cc(-c4cncnc4)ccc2O3)CCO1 [compound 422]
IC50 (BACE1 [1]): 0.1 to 1 µM
IC50 (BACE1 [2]; HEK cells): 0.1 to 1 µM

Structure (SMILES): NC1=N[C@]2(CO1)c1cc(Br)ccc1Oc1ccc(Oc3ccccn3)cc12 [compound 198, (4S)-2′-bromo-7′-(2-pyridinyloxy)spiro[1,3-oxazole-4,9′-xanthen]-2-amine]
IC50 (BACE1 [1]; Table III, IC50's in uM ranges): 0.1 to 1 µM
IC50 (BACE1 [2]; Table III, IC50's in uM ranges): 1 to 5 µM

Structure (SMILES): Cc1ccccc1-c1ccc2c(c1)[C@]1(COC(N)=N1)c1cc(-c3cncnc3)ccc1O2 [compound 220]
IC50 (BACE1 [1]; Table III, IC50's in uM ranges): < 0.1 µM
IC50 (BACE1 [2]; Table III, IC50's in uM ranges): 0.1 to 1 µM

Structure (SMILES): CN1CCN(c2cc3c(cn2)Oc2ccc(-c4cccnc4)cc2[C@@]32COC(N)=N2)CC1 [compound 444]
IC50 (BACE1 [1]): < 0.1 µM
IC50 (BACE1 [2]; HEK cells): < 0.1 µM

Structure (SMILES): CC(C)(O)CCc1ccc2c(c1)[C@]1(COC(N)=N1)c1cc(-c3cccnc3)ccc1O2 [compound 193]
IC50 (BACE1 [1]; Table III, IC50's in uM ranges): < 0.1 µM
IC50 (BACE1 [2]; Table III, IC50's in uM ranges): < 0.1 µM

Structure (SMILES): NC1=N[C@@]2(CO1)c1cc(Br)ccc1Oc1cnc(Cl)cc12 [compound 548]
IC50 (BACE1 [1]; Table IV, class symbols): > 5 µM
IC50 (BACE1 [2]; Table IV, class symbols): > 5 µM

Structure (SMILES): C[C@H]1OC(N)=N[C@]12c1cc(OCC(C)(C)C)ccc1Oc1ccc(-c3cncnc3)cc12 [126c]
IC50 (BACE1 [1]; Table III, IC50's in uM ranges): 0.1 to 1 µM
IC50 (BACE1 [2]; Table III, IC50's in uM ranges): 1 to 5 µM

Results, then the compound that gave them:

IC50 (BACE1 [1]; Table IV, class symbols): 0.1 to 1 µM
IC50 (BACE1 [2]; Table IV, class symbols): 1 to 5 µM
Structure (SMILES): COC(=O)c1ccc2c(c1)[C@@]1(COC(N)=N1)c1cc(OCC(C)(C)C)ccc1O2 [compound 850]

IC50 (BACE1 [1]): 0.1 to 1 µM
IC50 (BACE1 [2]): > 5 µM
Structure (SMILES): CC(C)(C)COc1ccc2c(c1)[C@]1(COC(N)=N1)c1cc(-c3ccc(C#N)cc3)ccc1O2 [compound 972]

IC50 (BACE1 [1]; Table IV, class symbols): < 0.1 µM
IC50 (BACE1 [2]; Table IV, class symbols): < 0.1 µM
Structure (SMILES): NC1=N[C@@]2(CO1)c1cc(-c3ccc(F)cc3)ccc1Oc1ncc(C3=CCOCC3)cc12 [compound 583]

IC50 (BACE1 [1]; Table IV, class symbols): < 0.1 µM
IC50 (BACE1 [2]; Table IV, class symbols): < 0.1 µM
Structure (SMILES): CC(C)(C)COc1ccc2c(c1)[C@@]1(COC(N)=N1)c1cc(-c3ccc(F)nc3)cnc1O2 [compound 868]

IC50 (BACE1 [1]; Table IV, class symbols): 1 to 5 µM
IC50 (BACE1 [2]; Table IV, class symbols): 1 to 5 µM
Structure (SMILES): NC1=N[C@@]2(CO1)c1ccccc1Oc1ccc(-c3cc4ccccc4o3)cc12 [compound 587]

IC50 (BACE1 [1]; Table IV, class symbols): < 0.1 µM
IC50 (BACE1 [2]; Table IV, class symbols): < 0.1 µM
Structure (SMILES): NC1=N[C@@]2(CO1)c1cc(-c3cccnc3)ccc1Oc1cnc(C3=CCCCC3)cc12 [compound 848]

IC50 (BACE1 [1]): < 0.1 µM
IC50 (BACE1 [2]): < 0.1 µM
Structure (SMILES): CC(C)NC(=O)c1ccc2c(c1)[C@@]1(COC(N)=N1)c1cc(OCC(C)(C)C)ccc1O2 [compound 703]

IC50 (BACE1 [1]): < 0.1 µM
IC50 (BACE1 [2]): < 0.1 µM
Structure (SMILES): Cn1cc(-c2ccc3c(c2)[C@]2(COC(N)=N2)c2cc(-c4cccnc4)ccc2O3)cn1 [compound 710]

IC50 (BACE1 [1]; Table IV, class symbols): 0.1 to 1 µM
IC50 (BACE1 [2]; Table IV, class symbols): 1 to 5 µM
Structure (SMILES): CC(C)Cc1cc2c3c(ccc2o1)Oc1ncc(-c2cncnc2)cc1[C@]31COC(N)=N1 [compound 792]

IC50 (BACE1 [1]): < 0.1 µM
IC50 (BACE1 [2]): > 5 µM
Structure (SMILES): NC1=N[C@]2(CO1)c1cc(/C=C/C(=O)O)ccc1Oc1ccc(-c3cccnc3)cc12 [compound 949]

IC50 (BACE1 [1]; Table IV, class symbols): < 0.1 µM
IC50 (BACE1 [2]; Table IV, class symbols): 0.1 to 1 µM
Structure (SMILES): NC1=N[C@@]2(CO1)c1cc(-c3cncnc3)ccc1Oc1ccc(-c3cccc(C(F)(F)F)c3)cc12 [compound 809]

IC50 (BACE1 [1]): < 0.1 µM
IC50 (BACE1 [2]): < 0.1 µM
Structure (SMILES): NC1=N[C@@]2(CO1)c1cc(-c3cccnc3)ccc1Oc1cnc(C3=CCCCC3)cc12 [compound 789]

IC50 (BACE1 [1]): 0.1 to 1 µM
IC50 (BACE1 [2]): 1 to 5 µM
Structure (SMILES): CC(C)(C)CC(=O)c1ccc2c(c1)[C@@]1(CSC(N)=N1)c1cc(-c3cncnc3)ccc1O2 [compound 762]

IC50 (BACE1 [1]): 1 to 5 µM
IC50 (BACE1 [2]): > 5 µM
Structure (SMILES): CC(C)(C)CCOc1nccc2c1[C@@]1(COC(N)=N1)c1cc(-c3cccnc3)ccc1O2 [compound 931]

IC50 (BACE1 [1]; Table IV, class symbols): < 0.1 µM
IC50 (BACE1 [2]; Table IV, class symbols): < 0.1 µM
Structure (SMILES): Cc1ccc(-c2cnc3c(c2)[C@]2(COC(N)=N2)c2cc(-c4cncnc4)ccc2O3)cc1 [compound 578]

IC50 (BACE1 [1]): 0.1 to 1 µM
IC50 (BACE1 [2]): 1 to 5 µM
Structure (SMILES): COC(C)(C)C#Cc1cc(F)c2c(c1)[C@@]1(COC(N)=N1)c1cc(-c3cncnc3)ccc1O2 [compound 674]

IC50 (BACE1 [1]; Table IV, class symbols): < 0.1 µM
IC50 (BACE1 [2]; Table IV, class symbols): 0.1 to 1 µM
Structure (SMILES): Cc1cc(-c2ccc3c(c2)[C@]2(COC(N)=N2)c2cc(-c4ccc(F)nc4)ccc2O3)on1 [compound 565]

IC50 (BACE1 [1]): > 5 µM
IC50 (BACE1 [2]): > 5 µM
Structure (SMILES): N#Cc1ccccc1Oc1ccc2c(c1)[C@]1(COC(N)=N1)c1cc(Br)ccc1O2 [compound 997]

IC50 (BACE1 [1]): < 0.1 µM
IC50 (BACE1 [2]): 1 to 5 µM
Structure (SMILES): CC(C)(C)COc1ccc2c(c1)[C@]1(COC(N)=N1)c1cc(-c3cncs3)ccc1O2 [compound 971]

IC50 (BACE1 [1]): > 5 µM
IC50 (BACE1 [2]): > 5 µM
Structure (SMILES): CC(C)(C)OC(=O)/C=C/c1ccc2c(c1)[C@]1(COC(N)=N1)c1cc(Br)ccc1O2 [compound 996]

IC50 (BACE1 [1]): < 0.1 µM
IC50 (BACE1 [2]): 0.1 to 1 µM
Structure (SMILES): CC(C)Cn1cc(-c2ccc3c(c2)[C@]2(COC(N)=N2)c2cc(-c4cccnc4)ccc2O3)cn1 [compound 708]

IC50 (BACE1 [1]): 1 to 5 µM
IC50 (BACE1 [2]): > 5 µM
Structure (SMILES): CC(C)(C)COc1cc2c(cc1F)[C@]1(COC(N)=N1)c1cc(-c3cncnc3)ccc1O2 [compound 999]

IC50 (BACE1 [1]; Table IV, class symbols): < 0.1 µM
IC50 (BACE1 [2]; Table IV, class symbols): < 0.1 µM
Structure (SMILES): NC1=N[C@@]2(CO1)c1cc(-c3cccnc3)ccc1Oc1cnc(C3=CCOCC3)cc12 [compound 849]

IC50 (BACE1 [1]): 1 to 5 µM
IC50 (BACE1 [2]): 1 to 5 µM
Structure (SMILES): COc1ccncc1-c1ccc2c(c1)[C@]1(COC(N)=N1)c1cc(OCC(C)(C)C)ccc1O2 [compound 778]

IC50 (BACE1 [1]; Table IV, class symbols): 1 to 5 µM
IC50 (BACE1 [2]; Table IV, class symbols): > 5 µM
Structure (SMILES): NC1=N[C@]2(CO1)c1ccccc1Oc1ccc(-c3cccc4cccnc34)cc12 [compound 630]

From patent publication US8426447B2, “Spiro-tricyclic ring compounds as beta-secretase modulators and methods of use” (Amgen Inc., priority 2008, dated 2013)
